From PMC10641717 (Journal of medicinal chemistry, 2023) come the findings set out here.

Broadly, the IC50 is the point on the concentration scale where inhibition reaches its midpoint. Low values mean greater potency in that assay, high ones weaker potency in that assay.

One test concerns 40 distinct BDs. Nature of the test: BROMOscan BromoMAX panel. The test is classed as binding, human. The note with it: for binding to other BDs in BROMOscan: 2 μM, BDs other than BRD7/BRD9; for selectivity in BROMOscan panel: 2 μM concentration.
The target of a further test is T1, His-tagged BRD7 BD (Homo sapiens, UniProt Q9NPI1).
T1 sequence (Q9NPI1 131-235 limits assumed): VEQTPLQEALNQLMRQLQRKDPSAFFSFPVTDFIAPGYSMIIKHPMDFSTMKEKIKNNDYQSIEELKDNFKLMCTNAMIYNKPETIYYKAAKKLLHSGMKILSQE
Description: Thermal shift assay. It counts as binding. The note with it: compounds at 25, 10, or 1 μM.

Another test addresses T2, His-tagged BRD9 BD (Homo sapiens, UniProt Q9H8M2).
T2 sequence (Q9H8M2 136-240 limits assumed): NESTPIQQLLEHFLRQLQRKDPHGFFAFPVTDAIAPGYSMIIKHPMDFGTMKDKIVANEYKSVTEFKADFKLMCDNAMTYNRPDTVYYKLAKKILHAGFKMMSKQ
Description: Thermal shift assay. The note with it: compounds at 25, 10, or 1 μM. The test is classed as binding.

The target in a further test is T3, BRD9 BD (Homo sapiens, UniProt Q9H8M2).
T3 sequence (Q9H8M2 136-240 limits assumed): T2 sequence (Q9H8M2 136-240 limits assumed)
Description: Microscale thermophoresis. The note with it: 50 nM His-tagged BRD9, ligand from 50 μM. It counts as binding. In general terms: In MST a laser heats a spot of the sample, and binding alters the fluorescence response.

Test [1] addresses T4, BRPF1B BD (Homo sapiens, UniProt P55201).
T4 sequence (P55201 628-732 limits assumed): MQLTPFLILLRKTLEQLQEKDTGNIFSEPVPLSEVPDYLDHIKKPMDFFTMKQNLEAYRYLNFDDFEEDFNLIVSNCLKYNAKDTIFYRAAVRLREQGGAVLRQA
Description: BROMOscan BromoMAX panel. The note with it: 2 μM. It counts as binding.

In the next test the target is T5, His-tagged BRPF1B BD (Homo sapiens, UniProt P55201).
T5 sequence (P55201 628-732 limits assumed): T4 sequence (P55201 628-732 limits assumed)
Description: Thermal shift assay. The test is classed as binding. The note with it: compounds at 25, 10, or 1 μM.

Test [2] has as its system LNCaP cells. Description: Growth inhibition, CellTiter-Glo, 4 days. The test is classed as cell-based, human. The note with it: 5, 1, and 0.1 μM. (ATP-based viability assays read luminescence as a measure of living cells.)
For the next test, the system named is PC-3 cells. Nature of the test: Growth inhibition, CellTiter-Glo, 4 days. It counts as cell-based, human. The note with it: 5, 1, and 0.1 μM.
The subject of test [3] is LNCaP, C4–2 and PC3 cells. Nature of the test: Dose curves over 7 days of treatment, CellTiter-Glo. It counts as cell-based, human.
The test system of another test is 22Rv1 cells. Description: On-target activity assessment in 22Rv1 cells with BRD7 knockdown. It counts as cell-based, human. The note with it: 2.5 or 5 μM, 4 days, two shRNA constructs.
The target of another test is T6, BRD7 BD (Homo sapiens, UniProt Q9NPI1).
T6 sequence (Q9NPI1 131-235 limits assumed): T1 sequence (Q9NPI1 131-235 limits assumed)
Nature of the test: NanoBRET target engagement in HEK293T cells. A general note: In BRET a luciferase serves as donor, and the signal depends on an acceptor being close.

Test [4] addresses T4, BRPF1B BD. Nature of the test: NanoBRET target engagement in HEK293T cells. The test is classed as cell-based.
Test [5] has as its system LNCaP cells. Description: RNA-Seq gene expression in LNCaP cells. The note with it: 1 μM, 72 h. The test is classed as cell-based, human.
The next test has as its target T7, BRD9 (Homo sapiens, UniProt Q9H8M2).
T7 sequence (Q9H8M2 1-597): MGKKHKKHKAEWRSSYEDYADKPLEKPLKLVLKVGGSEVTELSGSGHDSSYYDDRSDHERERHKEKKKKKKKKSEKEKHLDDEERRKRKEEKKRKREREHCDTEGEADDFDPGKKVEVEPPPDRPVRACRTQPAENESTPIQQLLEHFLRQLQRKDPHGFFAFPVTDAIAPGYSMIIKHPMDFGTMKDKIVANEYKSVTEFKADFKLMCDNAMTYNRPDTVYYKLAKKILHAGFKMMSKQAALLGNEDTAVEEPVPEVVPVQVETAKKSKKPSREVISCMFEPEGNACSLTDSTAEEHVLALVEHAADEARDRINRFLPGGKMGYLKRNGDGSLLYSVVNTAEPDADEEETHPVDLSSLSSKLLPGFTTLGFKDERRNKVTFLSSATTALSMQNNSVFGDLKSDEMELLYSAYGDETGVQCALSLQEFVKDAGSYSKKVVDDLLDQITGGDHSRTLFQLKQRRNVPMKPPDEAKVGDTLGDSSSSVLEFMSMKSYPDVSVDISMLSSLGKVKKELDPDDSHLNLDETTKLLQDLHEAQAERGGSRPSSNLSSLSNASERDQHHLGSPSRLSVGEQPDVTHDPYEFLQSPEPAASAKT
Nature of the test: Cell fractionation assay, BRD9 bound to chromatin. It counts as cell-based. The note with it: HEK293T, 10 μM, 24 h.

On to `Cc1cc(C)cc(-c2cn(C)c(=O)c3ccccc23)c1` [1–38, 4-(3,5-Dimethylphenyl)-2-methylisoquinolin-1(2H)-one], for which the “binding to other BDs in BROMOscan” value in the test with 40 distinct BDs is reported as “no binding to other BDs”. For the same compound, on His-tagged BRD7 BD, the “stabilization / Tm increase of BRD7 BD (TSA)” value is “stabilized and increased the Tm”. Moreover, the “stabilization / Tm increase of BRD9 BD (TSA)” value at His-tagged BRD9 BD was “stabilized and increased the Tm”.
Turning to `COc1ccc(-c2ccc3c(C)cc(=O)n(C)c3c2)c(C)n1` [1–78, 7-(6-Methoxy-2-methylpyridin-3-yl)-1,4-dimethylquinolin-2(1H)-one], the “binding to BRD9 (MST)” value at BRD9 BD was “no binding”. For the same compound, the “selectivity in BROMOscan panel” value with 40 distinct BDs is “showed selectivity for BRD7 over BRD9”. Besides, the “binding to BRPF1B BD in BROMOscan” value at BRPF1B BD [1] was “off-target binding”. Besides, the “stabilization / Tm increase of BRD7 BD (TSA)” value at His-tagged BRD7 BD was “increased the Tm”. Besides, the “stabilization of BRPF1B BD (TSA)” value on His-tagged BRPF1B BD is reported as “modest stabilization of BRPF1B at the highest concentration (25 μM)”. Also, in the test on LNCaP cells [2], the LNCaP cell growth entry is listed as “inhibited the cell growth”. Further, the PC-3 cell growth entry in the test on PC-3 cells is “active in PC-3 only at the highest concentration”. In addition, the “sensitivity of LNCaP and C4–2 cells relative to PC3 cells” value in [3] was 3−6 times. Also, in the test on 22Rv1 cells, the “viability of 22Rv1 cells with BRD7 knockdown” value is “not significantly affected”. At BRD7 BD, it took 800 nM to reach half-maximal inhibition (IC50).
For `COc1ccc(-c2ccc3c(C)cc(=O)n(C)c3c2)c(OC)n1` [2–77, 7-(2,6-Dimethoxypyridin-3-yl)-1,4-dimethylquinolin-2(1H)-one], on BRD9 BD, the “binding to BRD9 (MST)” value is recorded as “no binding”. The “selectivity in BROMOscan panel” value with 40 distinct BDs is “showed selectivity for BRD7 over BRD9”. For the same compound, on BRPF1B BD [1], the “binding to BRPF1B BD in BROMOscan” value is “off-target binding”. Further, the IC50 at BRPF1B BD [4] is > 10000 nM; against BRD7 BD, 1200 nM. Moreover, on His-tagged BRD7 BD, the “stabilization / Tm increase of BRD7 BD (TSA)” value was “increased the Tm”. Further, the LNCaP cell growth result in the test with LNCaP cells [2] was “inhibited the cell growth”. Also, the PC-3 cell growth result in the test with PC-3 cells is reported as “active in PC-3 only at the highest concentration”. Besides, the “sensitivity of LNCaP and C4–2 cells relative to PC3 cells” value in test [3] is recorded as 3−6 times. Besides, the “viability of 22Rv1 cells with BRD7 knockdown” value in the test with 22Rv1 cells is on record as “less affected”. The “GSEA Hallmark_Androgen_Response enrichment” value in the test with LNCaP cells [5] is “significant and strong negative enrichment”.
As to `COc1ccc2ccccc2c1-c1ccc2c(C)cc(=O)n(C)c2c1` [2–81, 7-(2-Methoxynaphthalen-1-yl)-1,4-dimethylquinolin-2(1H)-one], in the test with 40 distinct BDs, the “binding to other BDs in BROMOscan” value is recorded as “no binding to other BDs”.
For `COc1ccc(-c2cn(C)c(=O)c3ccccc23)c(OC)n1` [2–88, 4-(2,6-Dimethoxypyridin-3-yl)-2-methylisoquinolin-1(2H)-one], the “stabilization / Tm increase of BRD7 BD (TSA)” value on His-tagged BRD7 BD is “stabilized only BRD9 BD”. Also, on His-tagged BRD9 BD, the “stabilization / Tm increase of BRD9 BD (TSA)” value is reported as “stabilized only BRD9 BD”.
`COc1cc(-c2cn(C)c(=O)c3cnccc23)cc(OC)c1CN(C)C` [BI7273, reference compound]: the “stabilization / Tm increase of BRD7 BD (TSA)” value on His-tagged BRD7 BD was “binding and stabilization”. Also, the LNCaP cell growth entry with LNCaP cells [2] is reported as “little to no effect”. The PC-3 cell growth entry in the test with PC-3 cells is “little to no effect”.
On to `COc1ccccc1C(=O)Nc1cc2c(cc1N1CCCCC1)n(C)c(=O)n2C` [GSK-5959, reference compound], for which the LNCaP cell growth entry in the test with LNCaP cells [2] is “little to no effect”. In the test with PC-3 cells, the PC-3 cell growth entry was “little to no effect”.
Regarding `CCn1cc(-c2cccc(C(F)(F)F)c2)c2sc(C(=N)NC3CCS(=O)(=O)CC3)cc2c1=O` [I-BRD9], the “BRD9 bound to chromatin after treatment” value at BRD9 is “significantly reduced BRD9 from chromatin”.
